biological target: Dihydroorotate dehydrogenase (quinone), mitochondrial (Homo sapiens, UniProt Q02127); assay: DHODH enzymatic assay
Description: To detect DHODH enzyme activities, dichloroindophenol (DCIP) is added as the final electron acceptor in the assay. DCIP can accept electrons from the reduced coenzyme Q generated in the assay, or from dihydroorotate (DHO) via FMN by binding presumably to the ubiquinone pocket. […] The assay buffer contained […], pH 7.5, 150 mM NaCl, 0.5 mM EDTA, and 0.1% Triton X-100 in MilliQ water. Substrate consisting of 20 mM DHO, 5mM CoQ6, and 1mM DCIP in assay buffer, initiates the reaction. […] Absorbance measurements were obtained using the BMG Phera Star plate-reading spectrophotomer. Purified human DHODH was purchased from Proteros (cat. No. PR-0044). Chemicals were purchased from Sigma-Aldrich, Teknova, and Avanti Polar Lipids. Liquid handling was performed using Labcyte Echo and Formulatrix Tempest.

Dihydroorotate dehydrogenase (quinone), mitochondrial, sequence (Q02127 whole entry): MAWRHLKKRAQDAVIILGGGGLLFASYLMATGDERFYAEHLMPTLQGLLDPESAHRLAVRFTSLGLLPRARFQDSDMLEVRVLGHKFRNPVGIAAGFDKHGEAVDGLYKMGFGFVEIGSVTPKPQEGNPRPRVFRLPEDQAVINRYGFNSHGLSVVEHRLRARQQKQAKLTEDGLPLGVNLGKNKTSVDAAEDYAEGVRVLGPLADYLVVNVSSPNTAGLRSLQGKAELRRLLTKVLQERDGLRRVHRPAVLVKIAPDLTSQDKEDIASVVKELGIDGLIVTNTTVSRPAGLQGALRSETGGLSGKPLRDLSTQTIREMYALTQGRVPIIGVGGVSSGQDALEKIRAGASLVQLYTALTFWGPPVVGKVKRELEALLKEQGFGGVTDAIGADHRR

| IC50 | Compound |
| --- | --- |
| 2.11 nM | Cc1ccccc1-c1cc(C(C)C)c2cc(-c3cn(C)c(C(C)(C)O)n3)c(F)cn2c1=O [WO2022070071, Example 1] |
| 2.69 nM | Cc1n[nH]c(Cl)c1-c1cc(C(C)C)c2cc(-c3cn(C)c(C(C)(C)O)n3)c(F)cn2c1=O [WO2022070071, Example 4] |
| 2.1 nM | Cc1n[nH]c(Cl)c1-c1cc(C(C)C)c2cc(-c3nc(C(C)(C)O)n(C)n3)c(F)cn2c1=O [WO2022070071, Example 5] |
| 4.07 nM | Cc1n[nH]c(C(F)(F)F)c1-c1cc(C(C)C)c2cc(-c3cn(C)c(C(C)(C)O)n3)c(F)cn2c1=O [WO2022070071, Example 6] |
| 2.51 nM | Cc1n[nH]c(C(F)(F)F)c1-c1cc(C(C)C)c2cc(-c3nc(C(C)(C)O)n(C)n3)c(F)cn2c1=O [WO2022070071, Example 7] |
| 13 nM | Cc1ccnc(Cl)c1-c1cc(C(C)C)c2cc(-c3cn(C)c(C(C)(C)O)n3)c(F)cn2c1=O [WO2022070071, Example 8] |
| 13 nM | Cc1ccnc(Cl)c1-c1cc(C(C)C)c2cc(-c3nc(C(C)(C)O)n(C)n3)c(F)cn2c1=O [WO2022070071, Example 9] |

— BindingDB's records for patent WO2022070071 (JANSSEN BIOTECH, INC., 2022)
